Data on three compounds can be found in patent EP0101588A1, “Compositions comprising amino and diamino acid derivatives and use thereof as plant growth stimulants” (S.I.P.C.A.M. S.p.A. Società Italiana Prodotti Chimici e per …, priority 1982, dated 1984).

Where a name gives a salt, the structure may show the parent alone.

Type in all cases: in vivo
One experiment has as its system Radish. Nature of the experiment: Greenhouse radish crop, spraying after emergence. The conditions noted are these: 0.01 g/m^2 per treatment, two treatments at an interval of 4 days; for Radish crop roots only: untreated control 165; for Radish crop whole plants: untreated control 198.
For another experiment, the system named is lettuce. As to the kind of experiment: Field trial on lettuce, 4 weekly treatments. The conditions noted are these: 2 g/100 m^2 per treatment, untreated control 18.0.
A further experiment has as its system spinach. Nature of the experiment: Field trial on spinach, 4 weekly treatments. The conditions noted are these: 2 g/100 m^2 per treatment, untreated control 8.3.
Another experiment concerns San Marzano tomatoes. Nature of the experiment: Field trial on tomatoes, spraying before and after flowering. The conditions noted are these: 3 g/100 m^2 per treatment, 2 treatments before flowering and 3 weekly after flowering; untreated control 321.
The subject of a further experiment is Italy grapevines. Nature of the experiment: Vineyard trial, applications mixed with fungicides. The conditions noted are these: 1 g/100 m^2, 2 weekly applications before and 6 after flowering, mixed with fungicide mixtures; untreated control 234.
For experiment [1], the system named is thiosemicarbazide-treated rabbits with epileptic type syndromes. As to the kind of experiment: Intramuscular injection in rabbits with epileptic type syndromes. The conditions noted are these: 1 ml of 10% aqueous solution, as long as the level of the compound remains adequate. How it is done:
Prepare an aqueous solution containing 10% pure N-carboxymethyl-gamma-aminobutyric acid disodium salt and autoclave for 2 h at 115°C.
Inject very slowly by intramuscular route 1 ml of the solution thus prepared in thiosemicarbazide-treated rabbits with epileptic type syndromes.

With `NCCCCNCC(=O)[O-].[Na+]` [N-carboxymethyl-1,4-diamino-butane sodium salt], in the experiment with Radish, the “Radish crop roots only” value is 272 g/m^2 and the “Radish crop whole plants” value worked out at 335 g/m^2. Moreover, the “Harvest Lettuce” value in the experiment with lettuce is recorded as 23.5 kg/100 m^2. For the same compound, the “Harvest Spinach” value in the experiment on spinach turned out to be 11.8 kg/100 m^2. The same compound showed a Fruit harvest with San Marzano tomatoes of 574 kg/100 m^2. Moreover, the Grape harvest in the experiment on Italy grapevines is given as 345 kg/100 m^2.
For the compound `CC(NCCCC(=O)O)C(=O)O` (stereo not shown) [N-methylcarboxymethyl-gamma-aminobutyric acid disodium salt], in the experiment with Radish, the “Radish crop roots only” value is given as 262 g/m^2 and the “Radish crop whole plants” value was determined as 321 g/m^2. In the experiment with lettuce, the “Harvest Lettuce” value is recorded as 24.3 kg/100 m^2. Further, the “Harvest Spinach” value with spinach is recorded as 11.5 kg/100 m^2. This compound had a Fruit harvest with San Marzano tomatoes of 513 kg/100 m^2. Moreover, the Grape harvest in the experiment on Italy grapevines turned out to be 320 kg/100 m^2.
As for `O=C([O-])CCCNCC(=O)[O-].[Na+].[Na+]` [N-carboxymethyl gamma-amino-butyric acid disodium salt], in the experiment with Radish, the “Radish crop roots only” value is listed as 280 g/m^2 and the “Radish crop whole plants” value stood at 350 g/m^2. Moreover, in the experiment with lettuce, the “Harvest Lettuce” value is listed as 26.5 kg/100 m^2. In the experiment with spinach, the “Harvest Spinach” value came out at 12.6 kg/100 m^2. In addition, the Fruit harvest in the experiment with San Marzano tomatoes is given as 569 kg/100 m^2. The Grape harvest with Italy grapevines stood at 351 kg/100 m^2. For the same compound, the convulsions entry in experiment [1] is on record as “convulsions disappear”.
